System: 945468-187-T-J3-PDC spheroids with HUVEC/MSC, viability
Assay: Anticancer human tumor 945468-187-T-J3-PDC patient-derived rectal carcinoma cell line growth inhibition [PI3K]
Details: for IC50: curve of first compound; for viability, T/C: stronger effect = lower value
Outline: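 Spheroid viability read-out. Co-cultures contained the tumor line plus HUVEC and human MSCs. Each agent was paired with a PI3K inhibitor (inavolisib, alpelisib, duvelisib, copanlisib) across half-log dilutions starting at clinical Cmax, or at 10 microM when Cmax was unknown.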

[1] = second compound 0.0316 µM, first compound 0.0316 µM
[2] = second compound 0.0316 µM, first compound 0.1 µM
[3] = second compound 0.1 µM, first compound 0.0316 µM
[4] = second compound 0.1 µM, first compound 0.1 µM
[5] = second compound 0.316 µM, first compound 0.0316 µM
[6] = second compound 0.316 µM, first compound 0.1 µM
[7] = second compound 1 µM, first compound 0.0316 µM
[8] = second compound 1 µM, first compound 0.1 µM
[9] = second compound 3.16 µM, first compound 0.0316 µM
[10] = second compound 3.16 µM, first compound 0.1 µM
[11] = second compound 10 µM, first compound 0.0316 µM
[12] = second compound 10 µM, first compound 0.1 µM
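Note: spheroids exposed to agents for 7 days before viability read.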
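Throughout, for viability, T/C: 100% = DMSO vehicle control viability.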

## CC(=O)c1c(C)c2cnc(Nc3ccc(N4CCNCC4)cn3)nc2n(C2CCCC2)c1=O + Cc1nc(NC(=O)N2CCCC2C(N)=O)sc1-c1ccnc(C(C)(C)C(F)(F)F)c1
Second compound 0.0316 µM
  IC50: > 100 nM
Second compound 0.1 µM
  IC50: > 100 nM
Second compound 0.316 µM
  IC50: > 100 nM
Second compound 1 µM
  IC50: > 100 nM
Second compound 3.16 µM
  IC50: > 100 nM
Second compound 10 µM
  IC50: 12.4 nM
Second compound 0.0316 µM, first compound 0.000316 µM
  viability, T/C: 98.8%
Second compound 0.0316 µM, first compound 0.001 µM
  viability, T/C: 100%
Second compound 0.0316 µM, first compound 0.00316 µM
  viability, T/C: 90.7%
Second compound 0.0316 µM, first compound 0.01 µM
  viability, T/C: 107%
[1]
  viability, T/C: 97.5%
[2]
  viability, T/C: 104%
Second compound 0.1 µM, first compound 0.000316 µM
  viability, T/C: 91.5%
Second compound 0.1 µM, first compound 0.001 µM
  viability, T/C: 107%
Second compound 0.1 µM, first compound 0.00316 µM
  viability, T/C: 85.5%
Second compound 0.1 µM, first compound 0.01 µM
  viability, T/C: 91%
[3]
  viability, T/C: 100%
[4]
  viability, T/C: 102%
Second compound 0.316 µM, first compound 0.000316 µM
  viability, T/C: 103%
Second compound 0.316 µM, first compound 0.001 µM
  viability, T/C: 101%
Second compound 0.316 µM, first compound 0.00316 µM
  viability, T/C: 103%
Second compound 0.316 µM, first compound 0.01 µM
  viability, T/C: 97.9%
[5]
  viability, T/C: 99.8%
[6]
  viability, T/C: 94.3%
Second compound 1 µM, first compound 0.000316 µM
  viability, T/C: 111%
Second compound 1 µM, first compound 0.001 µM
  viability, T/C: 103%
Second compound 1 µM, first compound 0.00316 µM
  viability, T/C: 100%
Second compound 1 µM, first compound 0.01 µM
  viability, T/C: 97.6%
[7]
  viability, T/C: 101%
[8]
  viability, T/C: 102%
Second compound 3.16 µM, first compound 0.000316 µM
  viability, T/C: 106%
Second compound 3.16 µM, first compound 0.001 µM
  viability, T/C: 93.2%
Second compound 3.16 µM, first compound 0.00316 µM
  viability, T/C: 90.5%
Second compound 3.16 µM, first compound 0.01 µM
  viability, T/C: 90.7%
[9]
  viability, T/C: 90.7%
[10]
  viability, T/C: 76.2%
Second compound 10 µM, first compound 0.000316 µM
  viability, T/C: 57.6%
Second compound 10 µM, first compound 0.001 µM
  viability, T/C: 56%
Second compound 10 µM, first compound 0.00316 µM
  viability, T/C: 55.1%
Second compound 10 µM, first compound 0.01 µM
  viability, T/C: 49.3%
[11]
  viability, T/C: 46%
[12]
  viability, T/C: 31.3%

## CNC(=O)c1ccc(N2C(=S)N(c3ccc(C#N)c(C(F)(F)F)c3)C(=O)C2(C)C)cc1F + Cc1nc(NC(=O)N2CCCC2C(N)=O)sc1-c1ccnc(C(C)(C)C(F)(F)F)c1
Second compound 0.0316 µM
  IC50: > 10000 nM
Second compound 0.1 µM
  IC50: > 10000 nM
Second compound 0.316 µM
  IC50: > 10000 nM
Second compound 1 µM
  IC50: > 10000 nM
Second compound 3.16 µM
  IC50: > 10000 nM
Second compound 10 µM
  IC50: > 10000 nM
[1]
  viability, T/C: 102%
[2]
  viability, T/C: 108%
Second compound 0.0316 µM, first compound 0.316 µM
  viability, T/C: 96.1%
Second compound 0.0316 µM, first compound 1 µM
  viability, T/C: 115%
Second compound 0.0316 µM, first compound 3.16 µM
  viability, T/C: 107%
Second compound 0.0316 µM, first compound 10 µM
  viability, T/C: 104%
[3]
  viability, T/C: 108%
[4]
  viability, T/C: 106%
Second compound 0.1 µM, first compound 0.316 µM
  viability, T/C: 99.7%
Second compound 0.1 µM, first compound 1 µM
  viability, T/C: 105%
Second compound 0.1 µM, first compound 3.16 µM
  viability, T/C: 116%
Second compound 0.1 µM, first compound 10 µM
  viability, T/C: 94.8%
[5]
  viability, T/C: 125%
[6]
  viability, T/C: 108%
Second compound 0.316 µM, first compound 0.316 µM
  viability, T/C: 97%
Second compound 0.316 µM, first compound 1 µM
  viability, T/C: 105%
Second compound 0.316 µM, first compound 3.16 µM
  viability, T/C: 116%
Second compound 0.316 µM, first compound 10 µM
  viability, T/C: 108%
[7]
  viability, T/C: 120%
[8]
  viability, T/C: 115%
Second compound 1 µM, first compound 0.316 µM
  viability, T/C: 97.6%
Second compound 1 µM, first compound 1 µM
  viability, T/C: 118%
Second compound 1 µM, first compound 3.16 µM
  viability, T/C: 105%
Second compound 1 µM, first compound 10 µM
  viability, T/C: 108%
[9]
  viability, T/C: 123%
[10]
  viability, T/C: 110%
Second compound 3.16 µM, first compound 0.316 µM
  viability, T/C: 101%
Second compound 3.16 µM, first compound 1 µM
  viability, T/C: 112%
Second compound 3.16 µM, first compound 3.16 µM
  viability, T/C: 108%
Second compound 3.16 µM, first compound 10 µM
  viability, T/C: 121%
[11]
  viability, T/C: 61.1%
[12]
  viability, T/C: 68.6%
Second compound 10 µM, first compound 0.316 µM
  viability, T/C: 59.5%
Second compound 10 µM, first compound 1 µM
  viability, T/C: 61.2%
Second compound 10 µM, first compound 3.16 µM
  viability, T/C: 67.9%
Second compound 10 µM, first compound 10 µM
  viability, T/C: 88.5%

## Cn1cnc2c(F)c(Nc3ccc(Br)cc3Cl)c(C(=O)NOCCO)cc21 + Cc1nc(NC(=O)N2CCCC2C(N)=O)sc1-c1ccnc(C(C)(C)C(F)(F)F)c1
Second compound 0.0316 µM
  IC50: > 3000 nM
Second compound 0.1 µM
  IC50: > 3000 nM
Second compound 0.316 µM
  IC50: > 3000 nM
Second compound 1 µM
  IC50: 1180 nM
Second compound 3.16 µM
  IC50: 286 nM
Second compound 10 µM
  IC50: 20.9 nM
Second compound 0.0316 µM, first compound 0.00949 µM
  viability, T/C: 111%
Second compound 0.0316 µM, first compound 0.03 µM
  viability, T/C: 124%
Second compound 0.0316 µM, first compound 0.0949 µM
  viability, T/C: 129%
Second compound 0.0316 µM, first compound 0.3 µM
  viability, T/C: 120%
Second compound 0.0316 µM, first compound 0.949 µM
  viability, T/C: 123%
Second compound 0.0316 µM, first compound 3 µM
  viability, T/C: 107%
Second compound 0.1 µM, first compound 0.00949 µM
  viability, T/C: 113%
Second compound 0.1 µM, first compound 0.03 µM
  viability, T/C: 109%
Second compound 0.1 µM, first compound 0.0949 µM
  viability, T/C: 114%
Second compound 0.1 µM, first compound 0.3 µM
  viability, T/C: 122%
Second compound 0.1 µM, first compound 0.949 µM
  viability, T/C: 114%
Second compound 0.1 µM, first compound 3 µM
  viability, T/C: 90.4%
Second compound 0.316 µM, first compound 0.00949 µM
  viability, T/C: 114%
Second compound 0.316 µM, first compound 0.03 µM
  viability, T/C: 123%
Second compound 0.316 µM, first compound 0.0949 µM
  viability, T/C: 116%
Second compound 0.316 µM, first compound 0.3 µM
  viability, T/C: 123%
Second compound 0.316 µM, first compound 0.949 µM
  viability, T/C: 94.1%
Second compound 0.316 µM, first compound 3 µM
  viability, T/C: 60.4%
Second compound 1 µM, first compound 0.00949 µM
  viability, T/C: 117%
Second compound 1 µM, first compound 0.03 µM
  viability, T/C: 125%
Second compound 1 µM, first compound 0.0949 µM
  viability, T/C: 100%
Second compound 1 µM, first compound 0.3 µM
  viability, T/C: 101%
Second compound 1 µM, first compound 0.949 µM
  viability, T/C: 51.8%
Second compound 1 µM, first compound 3 µM
  viability, T/C: 34.2%
Second compound 3.16 µM, first compound 0.00949 µM
  viability, T/C: 105%
Second compound 3.16 µM, first compound 0.03 µM
  viability, T/C: 87%
Second compound 3.16 µM, first compound 0.0949 µM
  viability, T/C: 61.6%
Second compound 3.16 µM, first compound 0.3 µM
  viability, T/C: 55.7%
Second compound 3.16 µM, first compound 0.949 µM
  viability, T/C: 30%
Second compound 3.16 µM, first compound 3 µM
  viability, T/C: 20.2%
Second compound 10 µM, first compound 0.00949 µM
  viability, T/C: 56.9%
Second compound 10 µM, first compound 0.03 µM
  viability, T/C: 46.5%
Second compound 10 µM, first compound 0.0949 µM
  viability, T/C: 34.3%
Second compound 10 µM, first compound 0.3 µM
  viability, T/C: 20.6%
Second compound 10 µM, first compound 0.949 µM
  viability, T/C: 10.7%
Second compound 10 µM, first compound 3 µM
  viability, T/C: 4.74%

From PubChem BioAssay AID1963968 (Molecular Pharmacology Branch, DTP, NCI, 2024)
